Test results reported in US12410160B2 (Gilead Sciences, Inc., priority 2021, dated 2025).
Where two headings read alike, the source gives them in different places.

Tests used:
human KHK-C = human KHK-C (Homo sapiens (Human), UniProt P50053); assay: KHK Biochemical Assay (IC50), ADP-Glo, KHK-C; settings: average of at least two separate assays
Outline: (§1)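 ADP-Glo luminescence measured ADP made over a 4 h room-temperature reaction of ATP plus fructose, started after 30 min compound–enzyme pre-incubation. Buffer: 50 mM Hepes pH 7.4, 140 mM KCl, 5 mM MgCl2, 0.01% Triton-X. Enzyme was His-tagged, BL21 (DE3)-expressed, Ni-NTA-purified; compounds in 1:3 DMSO dilution series.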

[1] = molecular target: KHK-C expressed in NRK-52E cells (Homo sapiens (Human), UniProt P50053); assay: KHK-C Cell-based Assay (EC50), NRK CTG, fructose-mediated ATP-depletion
human KHK-A = human KHK-A (Homo sapiens (Human), UniProt P50053); assay: KHK Biochemical Assay (IC50), ADP-Glo, KHK-A; settings: average of at least two separate assays
Outline: as §1

human KHK-A, sequence (P50053 other isoform, or with tags, fused parts or gaps): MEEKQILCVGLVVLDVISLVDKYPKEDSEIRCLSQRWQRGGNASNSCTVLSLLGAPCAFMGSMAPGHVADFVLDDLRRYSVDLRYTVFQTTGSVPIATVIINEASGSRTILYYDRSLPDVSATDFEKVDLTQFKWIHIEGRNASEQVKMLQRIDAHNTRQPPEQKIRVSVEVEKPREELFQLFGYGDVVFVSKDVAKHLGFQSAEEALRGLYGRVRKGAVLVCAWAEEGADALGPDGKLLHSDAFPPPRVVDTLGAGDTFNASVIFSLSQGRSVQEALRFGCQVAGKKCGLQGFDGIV
KHK-C expressed in NRK-52E cells, sequence (P50053 whole entry): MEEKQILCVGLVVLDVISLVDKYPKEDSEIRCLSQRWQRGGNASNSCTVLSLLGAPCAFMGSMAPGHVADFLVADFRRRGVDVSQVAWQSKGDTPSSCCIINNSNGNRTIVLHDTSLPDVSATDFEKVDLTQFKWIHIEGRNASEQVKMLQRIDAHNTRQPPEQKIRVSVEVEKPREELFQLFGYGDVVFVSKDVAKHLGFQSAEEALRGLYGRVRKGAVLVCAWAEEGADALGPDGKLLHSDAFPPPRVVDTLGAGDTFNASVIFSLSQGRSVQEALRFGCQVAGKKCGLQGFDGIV
human KHK-C, sequence (P50053 whole entry): as above

Row | IC50 (human KHK-C; ADP-Glo) [nM] | EC50 [1] [nM] | IC50 (human KHK-A; ADP-Glo) [nM] | IC50 (human KHK-C) [nM] | EC50 ([1]; read-out: NRK CTG EC50, NRK-52E cells, Cell-Titer Glo, 25 mM fructose) [nM] | Compound | IC50 (human KHK-A) [nM]
1 | 125 | > 5000 | 83.7 | – | – | CC(=O)N1C[C@H](C(=O)O)[C@@H](c2cccc(-c3nc(N4CC[C@@H]4C)nc4c3CCC4)c2)C1 (mixture of isomers) [Example 145, (3R,4S)-1-acetyl-4-(3-(2-((S)-2-methylazetidin-1-yl)-6,7-dihydro-5H-cyclopenta[d]pyrimidin-4-yl)phenyl)pyrrolidine-3-carboxylic acid] | –
2 | – | 47.5 | – | 40.8 | – | C[C@H]1CCN1c1nc2c(c(-c3ccc4c(c3)[C@]3(C[C@H]3C#N)C(=O)N4)n1)CCC2 (mixture of isomers) [Example 410, rac-(1R,2R)-5′-(2-((S)-2-methylazetidin-1-yl)-6,7-dihydro-5H-cyclopenta[d]pyrimidin-4-yl)-2′-oxospiro[cyclopropane-1,3′-indoline]-2-carbonitrile] | 37.6
3 | – | 473 | – | 117 | – | C[C@H]1CCN1c1nc2c(c(-c3ccc4c(c3)[C@]3(C[C@@H]3C#N)C(=O)N4)n1)CCC2 (mixture of isomers) [Example 411, rac-(1R,2S)-5′-(2-((S)-2-methylazetidin-1-yl)-6,7-dihydro-5H-cyclopenta[d]pyrimidin-4-yl)-2′-oxospiro[cyclopropane-1,3′-indoline]-2-carbonitrile] | 66.3
4 | – | 406 | – | 29.2 | – | C[C@H]1CCN1c1nc2c(c(-c3ccc4c(c3)[C@]3(C[C@H]3C(N)=O)C(=O)N4)n1)CCC2 (mixture of isomers) [Example 412, rac-(1R,2R)-5′-(2-((S)-2-methylazetidin-1-yl)-6,7-dihydro-5H-cyclopenta[d]pyrimidin-4-yl)-2′-oxospiro[cyclopropane-1,3′-indoline]-2-carboxamide] | 57.3
5 | – | 750 | – | 74.4 | – | C[C@H]1CCN1c1nc2c(c(-c3ccc4c(c3)[C@]3(C[C@@H]3C(N)=O)C(=O)N4)n1)CCC2 (mixture of isomers) [Example 413, rac-(1R,2S)-5′-(2-((S)-2-methylazetidin-1-yl)-6,7-dihydro-5H-cyclopenta[d]pyrimidin-4-yl)-2′-oxospiro[cyclopropane-1,3′-indoline]-2-carboxamide] | 65.4
6 | 90.3 | 100 | 216 | – | – | C[C@H]1CCN1c1nc2c(c(-c3ccc4c(c3)C[C@@H]3[C@@H](C(N)=O)[C@H]43)n1)CCC2 (relative stereo) [Example 137, (1R,1aR*,6aS*)-4-(2-((S)-2-methylazetidin-1-yl)-6,7-dihydro-5H-cyclopenta[d]pyrimidin-4-yl)-1,1a,6,6a-tetrahydrocyclopropa[a]indene-1-carboxamide] | –
7 | 220 | 1800 | 294 | – | – | C[C@H]1CCN1c1nc2c(c(-c3ccc4c(c3)C[C@@H]3[C@H](C(N)=O)[C@H]43)n1)CCC2 (relative stereo) [Example 138, (1S,1aR*,6aS*)-4-(2-((S)-2-methylazetidin-1-yl)-6,7-dihydro-5H-cyclopenta[d]pyrimidin-4-yl)-1,1a,6,6a-tetrahydrocyclopropa[a]indene-1-carboxamide] | –
8 | 116 | 423 | 118 | – | – | CC(=O)N1C[C@H](C(N)=O)[C@@H](c2cccc(-c3nc(N4CC[C@@H]4C)nc4c3CCC4)c2)C1 (relative stereo) [Example 146, (3R*,4S*)-1-acetyl-4-(3-(2-((S)-2-methylazetidin-1-yl)-6,7-dihydro-5H-cyclopenta[d]pyrimidin-4-yl)phenyl)pyrrolidine-3-carboxamide] | –
9 | – | 1680 | – | 1020 | – | C[C@H]1CCN1c1nc2c(c(-c3ccc(C4(NS(C)(=O)=O)CCC4)cc3)n1)CCC2 [Example 743, N-[1-[4-[2-[(2S)-2-methylazetidin-1-yl]-6,7-dihydro-5H-cyclopenta[d]pyrimidin-4-yl]phenyl]cyclobutyl]methanesulfonamide] | –
10 | – | 142 | – | 17.2 | – | C[C@H](NS(C)(=O)=O)c1ccc(-c2nc(N3C[C@@H](O)[C@@H]3C)nc3c2CCC3(F)F)cc1 [Example 744, N-[(1S)-1-[4-[7,7-difluoro-2-[(2S,3R)-3-hydroxy-2-methyl-azetidin-1-yl]-5,6-dihydrocyclopenta[d]pyrimidin-4-yl]phenyl]ethyl]methanesulfonamide] | –
11 | – | 162 | – | 25.4 | – | C[C@H](NS(C)(=O)=O)c1cccc(-c2nc(N3C[C@@H](O)[C@@H]3C)nc3c2CCC3(F)F)c1 [Example 745, N-[(1S)-1-[3-[7,7-difluoro-2-[(2S,3R)-3-hydroxy-2-methyl-azetidin-1-yl]-5,6-dihydrocyclopenta[d]pyrimidin-4-yl]phenyl]ethyl]methanesulfonamide] | –
12 | – | 15.1 | – | 6.1 | – | C[C@H]1CCN1c1nc(-c2cc(F)c3c(c2)OCCNC3=O)c2c(n1)C(F)(F)CC2 [Example 747, 8-[7,7-difluoro-2-[(2S)-2-methylazetidin-1-yl]-5,6-dihydrocyclopenta[d]pyrimidin-4-yl]-6-fluoro-3,4-dihydro-2H-1,4-benzoxazepin-5-one] | –
13 | – | 85.9 | – | 23.2 | – | C[C@@H](NS(C)(=O)=O)c1ccc(-c2nc(N3CC[C@@H]3C)nc3c2CCC3(F)F)cc1 [Example 748, N-[(1R)-1-[4-[7,7-difluoro-2-[(2S)-2-methylazetidin-1-yl]-5,6-dihydrocyclopenta[d]pyrimidin-4-yl]phenyl]ethyl]methanesulfonamide] | –
14 | – | 69.7 | – | 18.8 | – | C[C@@H](NS(C)(=O)=O)c1cccc(-c2nc(N3CC[C@@H]3C)nc3c2CCC3(F)F)c1 [Example 749, N-[(1R)-1-[3-[7,7-difluoro-2-[(2S)-2-methylazetidin-1-yl]-5,6-dihydrocyclopenta[d]pyrimidin-4-yl]phenyl]ethyl]methanesulfonamide] | –
15 | – | 14.8 | – | 9 | – | C[C@H](NS(C)(=O)=O)c1ccc(-c2nc(N3CC[C@@H]3C)nc3c2CCC3(F)F)cc1 [Example 750, N-[(1S)-1-[4-[7,7-difluoro-2-[(2S)-2-methylazetidin-1-yl]-5,6-dihydrocyclopenta[d]pyrimidin-4-yl]phenyl]ethyl]methanesulfonamide] | –
16 | – | 17.9 | – | 10.8 | – | C[C@H](NS(C)(=O)=O)c1cccc(-c2nc(N3CC[C@@H]3C)nc3c2CCC3(F)F)c1 [Example 751, N-[(1S)-1-[3-[7,7-difluoro-2-[(2S)-2-methylazetidin-1-yl]-5,6-dihydrocyclopenta[d]pyrimidin-4-yl]phenyl]ethyl]methanesulfonamide] | –
17 | – | 223 | – | 79.2 | – | C[C@H]1CCN1c1nc2c(c(-c3ccc(C(N)=O)cn3)n1)CCC2 [Example 752, 6-[2-[(2S)-2-methylazetidin-1-yl]-6,7-dihydro-5H-cyclopenta[d]pyrimidin-4-yl]pyridine-3-carboxamide] | –
18 | – | 33.1 | – | 10.7 | – | C[C@H]1CCN1c1nc2c(c(-c3ccc4c(c3)NCCNC4=O)n1)CCC2 [Example 753, 8-[2-[(2S)-2-methylazetidin-1-yl]-6,7-dihydro-5H-cyclopenta[d]pyrimidin-4-yl]-1,2,3,4-tetrahydro-1,4-benzodiazepin-5-one] | –
19 | – | 6.9 | – | 2.3 | – | C[C@H]1CCN1c1nc(-c2ccc3c(c2)OCCC3NS(C)(=O)=O)c2c(n1)C(F)(F)CC2 (stereo partly drawn) [Example 759, N-[7-[7,7-difluoro-2-[(2S)-2-methylazetidin-1-yl]-5,6-dihydrocyclopenta[d]pyrimidin-4-yl]chroman-4-yl]methanesulfonamide] | –
20 | – | – | – | 23.6 | 193 | (1S)-1-[4-[7,7-difluoro-2-[(2S)-2-methylazetidin-1-yl]-5,6-dihydrocyclopenta[d]pyrimidin-4-yl]phenyl]-2,2-difluoro-ethanamine [Example 652] | –

Row | Compound | IC50 (human KHK-C; ADP-Glo) [nM] | EC50 [1] [nM] | IC50 (human KHK-A; ADP-Glo) [nM] | IC50 (human KHK-C) [nM] | EC50 ([1]; read-out: NRK CTG EC50, NRK-52E cells, Cell-Titer Glo, 25 mM fructose) [nM] | IC50 (human KHK-A) [nM]
21 | COC(=O)[C@@H]1C[C@@]12C(=O)Nc1ccc(-c3nc(N4CC[C@@H]4C)nc4c3CCC4)cc12 (racemic) [Example 406, rac-methyl (1R,2R)-5′-(2-((S)-2-methylazetidin-1-yl)-6,7-dihydro-5H-cyclopenta[d]pyrimidin-4-yl)-2′-oxospiro[cyclopropane-1,3′-indoline]-2-carboxylate] | – | 397 | – | 1040 | – | 841
22 | COC(=O)[C@H]1C[C@@]12C(=O)Nc1ccc(-c3nc(N4CC[C@@H]4C)nc4c3CCC4)cc12 (racemic) [Example 407, rac-methyl (1R,2S)-5′-(2-((S)-2-methylazetidin-1-yl)-6,7-dihydro-5H-cyclopenta[d]pyrimidin-4-yl)-2′-oxospiro[cyclopropane-1,3′-indoline]-2-carboxylate] | – | 506 | – | 229 | – | 235
23 | C[C@H]1CCN1c1nc2c(c(-c3ccc4c(c3)[C@]3(C[C@H]3C(=O)O)C(=O)N4)n1)CCC2 (racemic) [Example 408, rac-(1R,2R)-5′-(24(8)-2-methylazetidin-1-yl)-6,7-dihydro-5H-cyclopenta[d]pyrimidin-4-yl)-2′-oxospiro[cyclopropane-1,3′-indoline]-2-carboxylic acid] | – | > 5000 | – | 100 | – | 158
24 | C[C@H]1CCN1c1nc2c(c(-c3ccc4c(c3)[C@]3(C[C@@H]3C(=O)O)C(=O)N4)n1)CCC2 (racemic) [Example 409, rac-(1R,28)-5′-(24(8)-2-methylazetidin-1-yl)-6,7-dihydro-5H-cyclopenta[d]pyrimidin-4-yl)-2′-oxospiro[cyclopropane-1,3′-indoline]-2-carboxylic acid] | – | > 5000 | – | 34.3 | – | 41
